Reference: US20240132431A1, “METHOD FOR ALKYLATING ACIDIC FUNCTIONAL GROUP” (Chugai Seiyaku Kabushiki Kaisha, priority 2021, published 2024)
Read-outs that look alike come from different tables or passages of the source.

Tests used:
[1] = cited from earlier work; for Base/pKBH+ (CH3CN): transcribed from the Aldrich web site for phosphazene bases; for Base/pKBH^+ (CH3CN): pKa of conjugate acid of the base in CH3CN
human Bcl-2 protein = target: T1, human Bcl-2 protein (Homo sapiens, UniProt P10415); experiment: Binding evaluation of compounds to Bcl-2 by surface plasmon resonance (SPR)
T1 construct: purchased Novus Biologicals
Description: In order to analyze the binding affinity of the compounds shown in [Table AK-O1] and synthesized in Example 8 to Bcl-2, the surface plasmon resonance method was used. Biacore T200 (GE Healthcare) was used as the apparatus, and HBS (10 mM HEPES-NaOH, 150 mM NaCl, pH 7.4) to which 1 mM DTT, 3 mM EDTA, 0.01% Tween 20, and 4% DMSO had been added was used as the running buffer. The human Bcl-2 protein (Novus Biologicals) was biotinylated using EZ-Link Sulfo-NHS-LC-LC-biotin (Thermofisher scientific) and immobilized on the surface of Sensor Chip SA (GE Healthcare). Thereafter, compound solutions of multiple concentrations and the running buffer (blank) were added to the Bcl-2 immobilized surface to obtain the binding response of the compounds. The measurement was carried out at 15° C.

[2] = target: T2, Bcl-2 protein (Recombinant Human Bcl-2 Protein) (Homo sapiens, UniProt P10415); experiment: Binding evaluation of mixture library compounds to Bcl-2 using AS-MS (affinity selection mass spectrometry); settings: for ASMS ratio (%) n = 1 / ASMS ratio (%) n = 2: ASMS Ratio(%)=(A−C)/B×100; for ASMS ratio (%) n = 1: replicate n = 1; for ASMS ratio (%) n = 2: replicate n = 2
T2 construct: purchased Novus NBP2-34889
In short: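 Bcl-2 binding is scored from LC/MS signal retained with protein through gel-filtration spin columns, normalised to unfiltered and protein-free controls. Incubation: 20 μM protein, […] per compound, 1 h, 23° C.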

[3] = Biacore T200, biotinylated human Bcl-2 immobilized on Sensor Chip SA, 15° C., compounds found by AS-MS evaluation of synthesized library
[4] = AS-MS on the mixture of 1200 library compounds
[5] = first value in parentheses, (A−C)/B×100, 1200-compound mixture, Bcl-2 20 μM
[6] = second value in parentheses, (A−C)/B×100, 1200-compound mixture, Bcl-2 20 μM
[7] = Biacore T200, biotinylated human Bcl-2 immobilized on Sensor Chip SA, 15° C., compounds found by AS-MS evaluation of synthesized library, read-out: Equilibrium dissociation constant KD
[8] = Table 3-5-3, from Aldrich web site and Chem. Eur. J. 2021, 27, 4216-4229
[9] = binding to Bcl-2, compounds evaluated before library synthesis, read-out: KD
[10] = Table 3-5-1, transcribed from Aldrich web site
[11] = Table 3-5-2, transcribed from Aldrich web site
[12] = AS-MS, mixture of 1200 compounds, Bcl-2

T2 sequence (P10415 whole entry): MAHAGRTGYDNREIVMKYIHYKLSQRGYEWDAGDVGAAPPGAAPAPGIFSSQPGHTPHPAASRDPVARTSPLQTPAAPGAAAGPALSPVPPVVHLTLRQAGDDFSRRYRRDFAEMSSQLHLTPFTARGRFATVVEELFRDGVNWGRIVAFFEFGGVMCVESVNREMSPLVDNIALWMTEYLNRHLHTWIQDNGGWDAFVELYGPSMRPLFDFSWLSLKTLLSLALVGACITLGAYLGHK
T1 sequence (P10415 whole entry): as above

Row | Structure (SMILES) | Equilibrium dissociation constant KD (human Bcl-2 protein; [3]) | ASMS ratio (%) [2, 5] | ASMS ratio (%) [2, 6] | ASMS ratio (%) n = 1 ([2]; AS-MS, mixture library, Bcl-2) | ASMS ratio (%) n = 2 ([2]; AS-MS, mixture library, Bcl-2) | Base/pKBH^+ (CH3CN) [1, 8] | also measured
1 | CN(C)P(=NC(C)(C)C)(N=P(N(C)C)(N(C)C)N(C)C)N(C)C [P2tBu, 1-tert-Butyl-2,2,4,4,4-pentakis(dimethylamino)-2λ^5,4λ^5-catenadi(phosphazene)] | – | – | – | – | – | – | Base/pKBH+ (CH3CN) ([1]; Table 3-1): (33.5); Base/pKBH+ (CH3CN) ([1]; Table 3-4): P2tBu (33.5)
2 | CCOc1cccc(-c2ccc(CN3CCN(c4ccc(C(=O)N(C)CC56CC7CC(CC(C7)C5)C6)nn4)CC3)cc2C)c1 [B3A073-01, N-(1-adamantylmethyl)-6-[4-[[4-(3-ethoxyphenyl)-3-methylphenyl]methyl]piperazin-1-yl]-N-methylpyridazine-3-carboxamide] | Binding not observed | 31.3% | 28.6% | – | – | – | ASMS ratio (%) n = 1 [2, 4]: 31.3%; ASMS ratio (%) n = 2 [2, 4]: 28.6%
3 | CCOc1cccc(-c2ccc(CN3CCN(c4ccc(C(=O)NS(=O)(=O)c5ccc(NCCSc6ccccc6)c([N+](=O)[O-])c5)cc4)CC3)c(OC)c2)c1 [B2Q053-01, 4-[4-[[4-(3-ethoxyphenyl)-2-methoxyphenyl]methyl]piperazin-1-yl]-N-[3-nitro-4-(2-phenylsulfanylethylamino)phenyl]sulfonylbenzamide] | Binding not observed | 22.4% | 15.5% | 22.4% | 15.5% | – | –
4 | CCOc1cncc(-c2ccc(CN3CCN(c4ccc(C(=O)NS(=O)(=O)c5ccc(NCCSc6ccccc6)c([N+](=O)[O-])c5)cc4)CC3)c3ccccc23)c1 [B2Q066-01, 4-[4-[[4-(5-ethoxypyridin-3-yl)naphthalen-1-yl]methyl]piperazin-1-yl]-N-[3-nitro-4-(2-phenylsulfanylethylamino)phenyl]sulfonylbenzamide] | – | 40.7% | 36.9% | 40.7% | 36.9% | – | Kd (human Bcl-2 protein; [7]): 950 nM
5 | CCN=P(N=P(N(C)C)(N(C)C)N(C)C)(N(C)C)N(C)C [P2Et, 1-Ethyl-2,2,4,4,4-pentakis(dimethylamino)-2λ^5,4λ^5-catenadi(phosphazene)] | – | – | – | – | – | (32.9) | Base/pKBH+ (CH3CN) ([1]; Table 2-2): 32.9; Base/pKBH+ (CH3CN) ([1]; Table 3-1): (32.9); Base/pKBH^+ (CH3CN) ([1]; Table 3-3, transcribed from Aldrich web site): (32.9)
6 | CCOc1cccc(-c2ccccc2CN2CCN(c3ccc(C(=O)NS(=O)(=O)c4ccc(NCCSc5ccccc5)c([N+](=O)[O-])c4)cc3)CC2)c1 [B2Q045-01, 4-[4-[[2-(3-ethoxyphenyl)phenyl]methyl]piperazin-1-yl]-N-[3-nitro-4-(2-phenylsulfanylethylamino)phenyl]sulfonylbenzamide] | – | 49.9% | 49.9% | 49.9% | 49.9% | – | Kd (human Bcl-2 protein; [9]): 1200 nM
7 | CCN(C(C)C)C(C)C [DIPEA, N,N-Diisopropylethylamine] | – | – | – | – | – | (18.8) | pKBH+ value in CH3CN ([1]; Example 3-5-3, Aldrich web site and Chem. Eur. J. 2021, 27, 4216-4229): 18.8
8 | CCOc1cncc(-c2ccc(CN3CCN(c4ccc(C(=O)NS(=O)(=O)c5ccc(NCCSc6ccccc6)c([N+](=O)[O-])c5)cc4)CC3)c(OC)c2)c1 [B2Q054-01, 4-[4-[[4-(5-ethoxypyridin-3-yl)-2-methoxyphenyl]methyl]piperazin-1-yl]-N-[3-nitro-4-(2-phenylsulfanylethylamino)phenyl]sulfonylbenzamide] | – | 44.1% | 65.0% | 44.1% | 65.0% | – | Kd (human Bcl-2 protein; [7]): 1270 nM
9 | CCOc1cncc(-c2ccc(CN3CCN(c4ccc(C(=O)NS(=O)(=O)c5ccc(NCCSc6ccccc6)c(C(F)(F)F)c5)nn4)CC3)cc2C)c1 [B2R074-01, 6-[4-[[4-(5-ethoxypyridin-3-yl)-3-methylphenyl]methyl]piperazin-1-yl]-N-[4-(2-phenylsulfanylethylamino)-3-(trifluoromethyl)phenyl]sulfonylpyridazine-3-carboxamide] | Binding not observed | 22.4% | 25.4% | – | – | – | ASMS ratio (%) ([2]; n = 1): 22.4%; ASMS ratio (%) ([2]; n = 2): 25.4%
10 | CC(C)(C)N=P(N1CCCC1)(N1CCCC1)N1CCCC1 [BTPP, tert-Butylimino-tri(pyrrolidino)phosphorane] | – | – | – | – | – | (28.4) | Base/pKBH^+ (CH3CN) [1, 10]: (28.4); Base/pKBH^+ (CH3CN) [1, 11]: (28.4)
11 | CCOc1cccc(-c2ccc(CN3CCN(c4ccc(C(=O)NCC56CC7CC(CC(C7)C5)C6)nn4)CC3)c(CC)c2)c1 [B1A075-01, N-(1-adamantylmethyl)-6-[4-[[4-(3-ethoxyphenyl)-2-ethylphenyl]methyl]piperazin-1-yl]pyridazine-3-carboxamide] | Binding not observed | 31.3% | 28.6% | – | – | – | ASMS ratio (%) n = 1 [2, 12]: 31.3%; ASMS ratio (%) n = 2 [2, 12]: 28.6%
12 | CN(C)C(=NC(C)(C)C)N(C)C [BTMG, 2-tert-butyl-1,1,3,3-tetramethylguanidine] | – | – | – | – | – | (23.6) | –
13 | C1CN=C2NCCCN2C1 [TBD, 1,5,7-triazabicyclo[4.4.0]dec-5-ene] | – | – | – | – | – | (26.0) | –
14 | CCOc1cncc(-c2ccccc2CN2CCN(c3ccc(C(=O)NS(=O)(=O)c4ccc(NCCSc5ccccc5)c([N+](=O)[O-])c4)cc3)CC2)c1 [B2Q046-01, 4-[4-[[2-(5-ethoxypyridin-3-yl)phenyl]methyl]piperazin-1-yl]-N-[3-nitro-4-(2-phenylsulfanylethylamino)phenyl]sulfonylbenzamide] | – | 20.3% | 20.5% | 20.3% | 20.5% | – | Kd (human Bcl-2 protein; [9]): 8100 nM
15 | CCOc1cccc(-c2ccc(C(C)N3CCN(c4ccc(C(=O)NS(=O)(=O)c5ccc(NCCSc6ccccc6)c([N+](=O)[O-])c5)cc4)CC3)cc2)c1 (stereo not drawn) [B2Q097-01, 4-[4-[1-[4-(3-ethoxyphenyl)phenyl]ethyl]piperazin-1-yl]-N-[3-nitro-4-(2-phenylsulfanylethylamino)phenyl]sulfonylbenzamide] | Binding not observed | 142.5% | 326.4% | 142.5% | 326.4% | – | –
16 | CN(C)P(=NC(C)(C)C)(N(C)C)N(C)C [P1tBu, tert-Butylimino-tris(dimethylamino)phosphorane] | – | – | – | – | – | (26.9) | Base/pKBH+ (CH3CN) ([1]; Table 2-2): 26.9; Base/pKBH+ (CH3CN) ([1]; Table 3-4): P1tBu (26.9); Base/pKBH^+ (CH3CN) [1, 10]: (26.9); Base/pKBH^+ (CH3CN) [1, 11]: (26.9)
